Measurements reported in PMC8060642, “Cloning, Expression, Characterization, and Antioxidant Protection of Glutaredoxin3 From Psychrophilic Bacterium Psychrobacter sp. ANT206” (Frontiers in Microbiology, 2021).

Tested on: T1, Ps-Grx3
T1 construct: full length, 87 residues (264 bp ORF), class I dithiol Grx with CPYC motif
Assay: GR-coupled NADPH oxidation at […] nm, Lineweaver-Burk
Assay type: biochemical, Psychrobacter sp. ANT206
Details: 100 mM Tris-HCl pH 8.0, 25 °C; 1.0 mM GSH, 0.2 mM NADPH, 0.6 μg/mL GR; substrate 0.5-2.0 mM

Compound	Km
N[C@@H](CSSC[C@H](N)C(=O)O)C(=O)O [L-cystine]	520 µM
N[C@@H](CSS(=O)(=O)O)C(=O)O [S-sulfocysteine]	790 µM
OCCSSCCO [HED, 2-Hydroxyethyl disulfide]	690 µM
O=C1O[C@H]([C@@H](O)CO)C(=O)C1=O [DHA, dehydroascorbate]	650 µM
